Test results: patent publication US20250144092A1, “TREATMENT OF PSYCHIATRIC OR NEUROLOGICAL DISORDERS IN PATIENTS WITH PROMINENT ANHEDONIA USING IRDABISANT AS A MONOTHERAPY OR IN COMBINATION WITH AN ANTIPSYCHOTIC AGENT” (Alto Neuroscience, Inc., priority 2023, published 2025)
Structures can show the parent of a compound that is named as a salt.

How the values were obtained:
[1] = system: dopamine release in the striatum/nucleus accumbens; details: striatal microdialysis, literature reports; cited from earlier work
[2] = system: dopamine release in the cortex; details: literature reports; cited from earlier work
[3] = system: dopamine release in the nucleus accumbens; test: in vivo microdialysis in freely moving rats, dopamine efflux in nucleus accumbens; details: for dopamine release in the nucleus accumbens: basal conditions, IP administration, monitored 210 minutes
Description: To determine whether irdabisant (or pharmaceutically acceptable salt thereof, such as irdabisant hydrochloride) leads to dopamine release in the nucleus accumbens under basal conditions similar to those in which pitolisant, ABT-239 and JNJ-39220675 were tested and found to have no effect, in vivo microdialysis was performed in freely moving rats. Dopamine levels were monitored for 210 minutes following compound administration. Irdabisant hydrochloride was administered intraperitoneally (IP) at 0.001, 0.01, 0.3 and 10 mg/kg for 30 minutes following an IP vehicle (0.5% methylcellulose and 0.2% Tween 80) injection.
Male Sprague-Dawley albino rats weighing 250 to 350 g were housed two per cage and maintained in a controlled 12:12-h light/dark cycle and under constant temperature at 22° C., with free access to food and water. Rats were anesthetized with the modified Equithesin mixture (see, e.g., Li et al., Neuropsychopharm., 30, 1986-1995, 2005) and mounted in a stereotaxic frame. Stainless guide cannula with a dummy probe were placed and fixed by cranioplastic cement onto the cortex dorsal both to the medial prefrontal cortex (mPFC) and the nucleus accumbens (NAC). Rats received dual probe implantation for the mPFC and NAC (coordinates: A+3.2, L+0.8 (10° C. inclination), V-5.5 mm and A+2.0, L+1.5 to +1.7, V-7.5 mm, respectively, relative to bregma). Three to five days after cannulation, a dialysis probe was implanted into the mPFC and NAC under slight anesthesia with isoflurane. Rats were then housed individually overnight in a dialysis cage and the probes perfused with Dulbecco's phosphate-buffered saline solution with calcium (Sigma, St. Louis, MO) (138 mM NaCl, 8.1 mM Na2HPO4, 2.7 mM KCl, 1.5 mM KH2PO4, 0.5 mM MgCl2, 1.2 mM CaCl2), pH 7.4) at a rate of 0.4 μL/min. On the day of the experiment, the flow was increased to 1.5 μL/min. Sample collection began one hour later, and samples were collected every 30 min. After 60 min of stable baseline, each rat was dosed twice (indicated by arrows in FIG. 1-4); a vehicle dose at t=0 min., followed 30 minutes later by a dose of irdabisant hydrochloride. Dopamine (DA) and acetylcholine (Ach) samples, measured in the absence of cholinesterase inhibition, were monitored with HPLC coupled to mass spectrometry.
Data are presented as percentages of baseline from baseline to 180 minutes after treatment. Mean baseline levels (i.e., an average of 60, 30, and 0 minutes before injection) of DA and ACh in the mPFC and NAC were designated as 100%. Non-transformed data were analyzed at each dose by assessing the change relative to the mean baseline using a one-way repeated measures ANOVA followed by a Bonferroni's post-hoc test as implemented in the SigmaPlot version 11.0.0.77 statistical package (Systat Software, Inc., San Jose CA).

[4] = oral, after dosing; cited from earlier work
[5] = cited from earlier work

SMILES: O=C(c1ccc(Oc2ccc(F)cc2)nc1)N1CCCN(C2CCC2)CC1 [JNJ-39220675, (4-cyclobutyl-1,4-diazepan-1-yl) (6-(4-fluorophenoxy)pyridin3-yl) methanone]
- dopamine release in the nucleus accumbens [1]: lack of effect on dopamine release

SMILES: C(#Cc1ccc(CN2CCOCC2)cc1)CCN1CCCCC1.Cl.Cl [JNJ-10181457]
- dopamine release in the cortex [2]: do not

SMILES: C[C@@H]1CCCN1CCCOc1ccc(-c2ccc(=O)[nH]n2)cc1 [irdabisant, 6-{4-[3-((R)-2-methyl-pyrrolidin-1-yl)-propoxy]-phenyl}-2H-pyridazin-3-one]
- dopamine release in the nucleus accumbens [3]: increases dopamine release
- Tmax [4]: approximately 5 hours
- change over placebo on BL-VAS subscales ([5]; Baakman et al. 2019): increasing scores on BL-VAS alertness and contentedness/mood subscales
- subjective experiences and cognitive effects ([5]; healthy participants, after a single dose): promote positive subjective experiences and cognitive effects

SMILES: Clc1ccc(CCCOCCCN2CCCCC2)cc1 [pitolisant]
- dopamine release in the nucleus accumbens [1]: no increase in release of dopamine release

SMILES: C[C@@H]1CCCN1CCCOc1ccc(-c2ccc(=O)[nH]n2)cc1 [irdabisant hydrochloride]
- elevation in dopamine levels relative to baseline ([3]; 0.01 mg/kg dose, 180 minutes post-dose, p=0.005, overall p<0.001): statistically significant elevation in dopamine levels
- elevation in dopamine levels relative to baseline ([3]; 0.3 mg/kg dose, 90 minute time point, p=0.02, overall p=0.003): significance
- maximal effect on nucleus accumbens dopamine efflux ([3]; 10 mg/kg IP dose): 205.6±6.86 % over basal
- elevation in dopamine levels relative to baseline ([3]; 10 mg/kg dose, 60, 90, 120 and 150 minute time points, overall p<0.001): significance was achieved
- threshold dose for nucleus accumbens dopamine efflux ([3]; IP): 0.01 mg/kg
- dopamine release in the nucleus accumbens [3]: increased dopamine release was observed

SMILES: C[C@@H]1CCCN1CCc1cc2cc(-c3ccc(C#N)cc3)ccc2o1 [ABT-239, (R)-4-(2-(2-(2-methyl-|-pyrrolidinyl)ethyl)-1-benzofuran-5-yl)benzonitrile]
- dopamine release in the nucleus accumbens [1]: lack of effect on dopamine release
